Source: article PMC10762035, “Molecular basis of human trace amine-associated receptor 1 activation” (Nature Communications, 2024)
Where “and” joins values, the source holds several entries; their conditions need not be identical. Equal entries are not always repeated. Structures can show the parent of a compound that is named as a salt.

How the values were obtained:
hTA1 [1] = target: T1, hTA1 (Homo sapiens, UniProt Q96RJ0); assay: Screen of 89 aminergic compounds at 10 µM, cAMP accumulation in HEK293T cells; type: cell-based; settings: quadruplicate values; screen at 10 µM;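 note: HEK293T cells co-transfected with hTA1 and GloSensor cAMP reporter, cAMP accumulation detected by luminescence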
T1 construct: expressed in transfected cells; host or cells: HEK293T
T1 sequence (Q96RJ0 1-339): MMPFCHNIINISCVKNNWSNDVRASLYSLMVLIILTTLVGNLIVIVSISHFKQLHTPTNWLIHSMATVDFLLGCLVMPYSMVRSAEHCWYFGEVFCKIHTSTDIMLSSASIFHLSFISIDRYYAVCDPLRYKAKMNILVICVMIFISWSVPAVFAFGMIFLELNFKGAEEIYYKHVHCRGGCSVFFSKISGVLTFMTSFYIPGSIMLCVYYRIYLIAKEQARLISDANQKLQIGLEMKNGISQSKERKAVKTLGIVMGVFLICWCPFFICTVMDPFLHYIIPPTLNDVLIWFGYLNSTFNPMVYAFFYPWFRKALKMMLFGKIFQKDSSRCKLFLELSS

hTA1 [2] = target: T1, hTA1; assay: GloSensor cAMP accumulation assay, concentration response, wild-type hTA1 in transfected HEK293T cells; type: cell-based; settings: log[Compound], replicate wells;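 note: luminescence read after 30 min compound exposure at room temperature in cells preloaded with D-Luciferin, reflecting Gs-driven cAMP rise, efficacy scaled to the maximal β-PEA response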

CCN(CC)C(=O)[C@@H]1C=C2c3cccc4[nH]c(Br)c(c34)C[C@H]2N(C)C1 [2-Br LSD]
Luminescence for Screening Data (hTA1 [1]): 10.4 and 10.1 and 9.5 and 7.6

CCCCCCCCCOc1ccc2[nH]cc(CCN)c2c1 [5-nonyloxytryptamine]
Luminescence for Screening Data (hTA1 [1]): 10.6 and 10.3 and 13.3 and 10.2

NCCc1c[nH]c2ccc(O)cc12 [5HT]
Normalized Luminescence Counts for WT hTA1 (hTA1 [2]; M = -5): 22.7551 and 23.5409 and 27.4699 and 21.1146 and 16.9666 and 15.5049
Normalized Luminescence Counts for WT hTA1 (hTA1 [2]; M = -5.522): 12.7034 and 13.2601 and 13.0636 and 11.1989 and 10.4878 and 9.8162
Normalized Luminescence Counts for WT hTA1 (hTA1 [2]; M = -6): 16.6652 and 17.3528 and 14.4388 and 9.54 and 6.932 and 6.5768
Normalized Luminescence Counts for WT hTA1 (hTA1 [2]; M = -6.522): 9.953 and 14.2096 and 13.2928 and 9.698 and 6.261 and 7.564
Normalized Luminescence Counts for WT hTA1 (hTA1 [2]; M = -7): 9.7567 and 9.593 and 11.8194 and 6.3 and 5.55 and 6.814
Normalized Luminescence Counts for WT hTA1 (hTA1 [2]; M = -7.522): 9.298 and 11.492 and 8.12 and 4.167 and 4.444 and 4.799
Normalized Luminescence Counts for WT hTA1 (hTA1 [2]; M = -8): 9.298 and 7.236 and 9.822 and 3.732 and 3.653 and 4.048
Normalized Luminescence Counts for WT hTA1 (hTA1 [2]; M = -8.522): 4.387 and 5.369 and 8.578 and 1.7177 and 3.258 and 2.5868
Normalized Luminescence Counts for WT hTA1 (hTA1 [2]; M = -9): 3.339 and 1.604 and 3.176 and 2.073 and 0.9671 and 0.7301
Normalized Luminescence Counts for WT hTA1 (hTA1 [2]; M = -9.522): 0.589 and 1.473 and 1.408 and 0.01898 and -0.2575 and -0.4946
Normalized Luminescence Counts for WT hTA1 (hTA1 [2]; M = -10): 1.702 and 0.2289 and 0.1307 and -0.9291 and -0.09953 and -0.2971
Normalized Luminescence Counts for WT hTA1 (hTA1 [2]; M = -10.522): 0.6218 and 0.8182 and -0.295 and -1.285 and -0.7316 and -1.364
Normalized Luminescence Counts for WT hTA1 (hTA1 [2]; M = -11): -0.2622 (2×) and -0.5897 and 0.335 and 0.177 and -0.02052
Normalized Luminescence Counts for WT hTA1 (hTA1 [2]; M = -11.522): 0.06517 and 0.3926 and -0.09854 and -0.1785 (2×) and 0.09799
Normalized Luminescence Counts for WT hTA1 (hTA1 [2]; M = -12): 0.1307 and 0.5563 and -0.6551 and -0.6131 and 0.256 and 0.2955
Normalized Luminescence Counts for WT hTA1 (hTA1 [2]; M = -12.522): -0.2295 and 0.1307 and -0.1313 and 0.6906 and 0.8486 and -0.6921

Cc1nn(C)c(C)c1-c1cccc2c1CC[C@H](N(C)C)C2 [AS19]
Luminescence for Screening Data (hTA1 [1]): 9.8 and 9.9 and 8 and 6.8

CN(C)c1ccc(/C=C/c2cc[n+](C)cc2)cc1.[I-] [ASP-iodide]
Luminescence for Screening Data (hTA1 [1]): 6.9 and 6.2 and 4.9 and 4.4

C=CCc1ccccc1OCC(O)CNC(C)C (stereo not shown) [Alprenolol]
Luminescence for Screening Data (hTA1 [1]): 10.1 and 8.4 and 7.8 and 6.7

Cl.O=C(c1ccc(F)cc1)C1CCN(CCn2c(=S)[nH]c3ccccc3c2=O)CC1 [Altanserin hydrochloride hydra]
Luminescence for Screening Data (hTA1 [1]): 9.1 and 6 and 8.8 and 5.9

N=C(N)NC(=O)c1nc(Cl)c(N)nc1N [Amiloride]
Luminescence for Screening Data (hTA1 [1]): 9.5 and 8.8 and 7 and 8.1

CCN1CCCC1CNC(=O)c1cc(S(=O)(=O)CC)c(N)cc1OC (stereo not shown) [Amisulpride]
Luminescence for Screening Data (hTA1 [1]): 8 and 6.7 and 8.1 and 7

O=C1CCc2ccc(OCCCCN3CCN(c4cccc(Cl)c4Cl)CC3)cc2N1 [Aripiprazole]
Luminescence for Screening Data (hTA1 [1]): 3.9 and 3.4 and 5.3 and 4.7

CN1CC2c3ccccc3Oc3ccc(Cl)cc3C2C1 (stereo not shown) [Asenapine maleate]
Luminescence for Screening Data (hTA1 [1]): 139.1 and 129.2 and 126.2 and 110.4

NCCc1ccccc1 [B-PEA]
Luminescence for Screening Data (hTA1 [1]): 160.4 and 164.2 and 180.4 and 167

CN1CCC(c2c[nH]c3ccc(O)cc23)CC1 [BRL 54443]
Luminescence for Screening Data (hTA1 [1]): 10 and 7.1 and 8.1 and 6.4

C=CCN1C[C@H](C(=O)N(CCCN(C)C)C(=O)NCC)C[C@@H]2c3cccc4[nH]cc(c34)C[C@H]21 [Cabergoline]
Luminescence for Screening Data (hTA1 [1]): 7.4 and 6.2 and 7 and 5.7

CN/C(=N/CCSCc1nc[nH]c1C)NC#N [Cimetidine]
Luminescence for Screening Data (hTA1 [1]): 8.3 and 6.6 and 8.6 and 5.4

N.N.[Cl][Pt][Cl] [Cisplatin]
Luminescence for Screening Data (hTA1 [1]): 5.8 and 6.4 and 6.9 and 6.2

CN(C)CCCC1(c2ccc(F)cc2)OCc2cc(C#N)ccc21 (stereo not shown) [Citalopram hydrobromide]
Luminescence for Screening Data (hTA1 [1]): 6.1 and 6.2 and 7.2 and 6.9

Cl.O=C1Nc2ccc(Cl)c3c2C1(CCCCN1CC=C(c2ccc(Cl)cc2)CC1)CCC3 (stereo not shown) [DR4485 hydrochloride]
Luminescence for Screening Data (hTA1 [1]): 5.6 and 5.7 and 6.4 and 4.9

CNCCCN1c2ccccc2CCc2ccccc21 [Desipramine]
Luminescence for Screening Data (hTA1 [1]): 6 and 6.2 and 5.6 and 6.1

CC(C)[C@@]1(NC(=O)[C@@H]2C[C@@H]3c4cccc5[nH]cc(c45)C[C@H]3N(C)C2)O[C@@]2(O)[C@@H]3CCCN3C(=O)[C@H](Cc3ccccc3)N2C1=O [Dihydroergocristine mesylate]
Luminescence for Screening Data (hTA1 [1]): 5.9 and 6.4 and 5.1 and 5.2

CC[C@@H](CO)NC(=O)[C@@H]1C=C2c3cccc4[nH]cc(c34)C[C@H]2N(C)C1 [Methylergonovine]
Normalized Luminescence Counts for WT hTA1 (hTA1 [2]; M = -5): 45.3336 and 42.9514 and 53.7117 and 43.7792 and 37.0624 and 36.5834
Normalized Luminescence Counts for WT hTA1 (hTA1 [2]; M = -5.522): 17.8708 and 18.4864 and 21.6449 and 29.4218 and 29.3534 and 29.1139
Normalized Luminescence Counts for WT hTA1 (hTA1 [2]; M = -6): 12.9992 and 11.3664 and 9.546 and 15.3039 and 15.0416 and 13.8556
Normalized Luminescence Counts for WT hTA1 (hTA1 [2]; M = -6.522): 6.093 and 6.147 and 6.254 and 7.082 and 6.8879 and 7.207
Normalized Luminescence Counts for WT hTA1 (hTA1 [2]; M = -7): 4.514 and 3.604 and 5.103 and 3.125 and 3.353 and 3.387
Normalized Luminescence Counts for WT hTA1 (hTA1 [2]; M = -7.522): 2.5066 and 3.845 and 3.203 and 2.03 and 1.87 and 2.201
Normalized Luminescence Counts for WT hTA1 (hTA1 [2]; M = -8): 2.5869 and 2.4263 and 1.489 and 1.2088 and 1.368 and 1.722
Normalized Luminescence Counts for WT hTA1 (hTA1 [2]; M = -8.522): 1.65 and 1.864 and 0.9274 and 1.414 and 1.14 and 1.916
Normalized Luminescence Counts for WT hTA1 (hTA1 [2]; M = -9): 0.3385 and 0.4991 and -0.009489 and 1.152 and 1.026 and 0.8895
Normalized Luminescence Counts for WT hTA1 (hTA1 [2]; M = -9.522): -0.06302 and -0.3842 and -0.8125 and 0.7184 and 0.4676 and 0.4447
Normalized Luminescence Counts for WT hTA1 (hTA1 [2]; M = -10): -0.08979 and -0.3039 and -0.2504 and 0.2509 and 0.1026 and 0.2167
Normalized Luminescence Counts for WT hTA1 (hTA1 [2]; M = -10.522): -0.3039 and -0.4645 and -0.2236 and 0.05702 and 0.03421 and -0.1026
Normalized Luminescence Counts for WT hTA1 (hTA1 [2]; M = -11): 0.09758 and -0.2772 and 0.4723 and 0.1825 and -0.1939 and 0
Normalized Luminescence Counts for WT hTA1 (hTA1 [2]; M = -11.522): 0.4188 and 0.74 and 0.6597 and 0.2395 and 0.7298 and 0.3877
Normalized Luminescence Counts for WT hTA1 (hTA1 [2]; M = -12): 0.5794 and 0.8471 and 0.74 and 0.3079 and 0.2281 and 0.479
Normalized Luminescence Counts for WT hTA1 (hTA1 [2]; M = -12.522): -0.4378 and 0.6865 and 0.7668 and 0.6272 and 0.479 and 0.1026

NCCc1ccccc1 [bPEA]
Normalized Luminescence Counts for WT hTA1 (hTA1 [2]; M = -5): 114.55 and 104.58 and 118.623 and 102.53 and 95.7683 and 107.085
Normalized Luminescence Counts for WT hTA1 (hTA1 [2]; M = -5.522): 96.3904 and 87.8446 and 97.5922 and 98.0692 and 90.9789 and 92.0588
Normalized Luminescence Counts for WT hTA1 (hTA1 [2]; M = -6): 88.2006 and 75.1148 and 94.0536 and 103.14 and 88.8658 and 89.805
Normalized Luminescence Counts for WT hTA1 (hTA1 [2]; M = -6.522): 73.7573 and 64.299 and 91.1383 and 74.7791 and 68.7219 and 73.7461
Normalized Luminescence Counts for WT hTA1 (hTA1 [2]; M = -7): 70.4636 and 45.5827 and 61.4726 and 66.5619 and 44.258 and 53.6961
Normalized Luminescence Counts for WT hTA1 (hTA1 [2]; M = -7.522): 36.1467 and 21.3027 and 35.9464 and 26.7905 and 17.9158 and 22.3766
Normalized Luminescence Counts for WT hTA1 (hTA1 [2]; M = -8): 22.727 and 16.7405 and 21.3472 and 13.3611 and 11.9525 and 11.6238
Normalized Luminescence Counts for WT hTA1 (hTA1 [2]; M = -8.522): 4.5 and 4.523 and 5.969 and 4.393 and 2.514 and 2.6083
Normalized Luminescence Counts for WT hTA1 (hTA1 [2]; M = -9): 1.986 and 1.318 and 1.8743 and 1.716 and 1.012 and 1.106
Normalized Luminescence Counts for WT hTA1 (hTA1 [2]; M = -9.522): -1.063 and -1.33 and -0.4402 and -0.06817 and 0.1666 and -0.4908
Normalized Luminescence Counts for WT hTA1 (hTA1 [2]; M = -10): -0.596 and -1.264 and -0.5515 and -0.4438 and -0.7725 and -0.6786
Normalized Luminescence Counts for WT hTA1 (hTA1 [2]; M = -10.522): -1.3749 and -1.931 and -0.6405 and 0.0727 and -0.5847 and -1.101
Normalized Luminescence Counts for WT hTA1 (hTA1 [2]; M = -11): -0.1286 and -1.241 and 0.2497 and 0.6362 and -0.3499 and -0.7725
Normalized Luminescence Counts for WT hTA1 (hTA1 [2]; M = -11.522): -0.01735 and -1.575 and -0.7963 and 0.5892 and -0.3969 and -0.256
Normalized Luminescence Counts for WT hTA1 (hTA1 [2]; M = -12): -1.353 and -1.3749 and -1.286 and 0.02574 and -0.4908 and -0.3029
Normalized Luminescence Counts for WT hTA1 (hTA1 [2]; M = -12.522): -1.152 and -1.664 and -0.9075 and 0.5892 (2×) and 0.4483
